pIC50: −log10 of the molar value. Where two headings read alike, the source gives them in different places.
Key:
Cathepsin D = Cathepsin D (Homo sapiens (Human), UniProt P07339); assay: Cathepsin D FP assay; assay type: biochemical; details: pH 4.5, read-out: CatD FP IC50
Experimental: (§1) BACE1 activity can be assessed in an AlphaScreen® assay. Compounds to be assessed (e.g. compounds as described in the above examples) are serially diluted 1:4 in DMSO, then plated by diluting 10 μL of compound with 40 μl of assay buffer (1×PBS, 0.01% Tween-20, pH 7.0, 0.05% BSA). The diluted compound is transferred (4 μL per well) to a 386 well assay plate and 4 μL of BACE1 enzyme ([…]) is added and incubated for 15 minutes. This assay uses a probe that is a BACE1 binding sight ligand linked to biotin, which can be displaced by test compound dependent on compound binding affinity. This of biotinylated probe (4 μL) is added and incubated for 1 hour, followed with 4 μL of donor and acceptor bead mixture and incubated for 2 hours. The fluorescent signal is read on a plate reader and the value as a function of compound concentration is used to determine the IC50. Compounds are also assessed for BACE1 and Cathepsin D activity using an FP Assay. Compounds to be assessed (e.g. compounds as described in the above examples) are serially diluted 1:3 with DMSO and each concentration point is transferred to a 96 well plate, 6 μL per well, followed by addition of 194 μL of assay buffer (100 mM sodium acetate, pH 4.5 with 0.001% Tween-20). A 10 μL compound sample from this plate is transferred to a well of a 384 well plate and combined with 10 μL per well of BACE1 enzyme (0.3 nM in assay buffer) or Cathepsin D enzyme (1.8 nM in assay buffer) and the plate is incubated at room temperature for 30 minutes.

BACE1 [1] = molecular target: T1, BACE1 (Homo sapiens (Human), UniProt P56817); assay: BACE1 FP assay; assay type: biochemical; details: pH 4.5
T1 sequence (P56817 46-501): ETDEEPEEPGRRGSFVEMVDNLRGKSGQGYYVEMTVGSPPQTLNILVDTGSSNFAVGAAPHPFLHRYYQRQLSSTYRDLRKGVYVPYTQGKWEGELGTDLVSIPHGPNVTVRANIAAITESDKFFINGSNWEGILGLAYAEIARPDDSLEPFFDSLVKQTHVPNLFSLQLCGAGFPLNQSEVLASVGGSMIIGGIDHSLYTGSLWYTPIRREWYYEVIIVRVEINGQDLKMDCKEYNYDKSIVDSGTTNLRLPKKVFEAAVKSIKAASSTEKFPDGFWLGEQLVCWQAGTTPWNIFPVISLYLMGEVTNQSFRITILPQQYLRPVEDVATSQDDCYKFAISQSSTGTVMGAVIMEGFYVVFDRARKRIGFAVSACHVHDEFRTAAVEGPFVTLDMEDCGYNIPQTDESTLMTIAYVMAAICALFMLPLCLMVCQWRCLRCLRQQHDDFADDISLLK
Experimental: as §1

BACE1 [2] = molecular target: T1, BACE1; assay: BACE1 AlphaScreen assay (displacement of biotinylated BACE1 binding site probe); details: read-out: BACE1 AS IC50
Experimental: as §1

[3] = system: BACE1 inhibition in HEKp293 cells transfected with APP751 gene (SWE293); assay: SWE293 cellular assay: reduction of Aβ peptide production, ELISA; assay type: cell-based; details: Homo sapiens, read-out: SWE293 ED50
Experimental: BACE1 inhibition is also assessed in a cellular assay. HEKp293 cells transfected with APP751 gene (SWE293, American Type Culture Collection CRL-1563) are used to assess compounds for reduction in levels of Aβ peptide production. SWE293 cell medium is DMEM supplemented with 10% fetal bovine serum and 2 mM L-glutamine, 1.0 mM sodium pyruvate, 25 mM Hepes Buffer, 0.4 mg/mL geneticin (G418, Gibco BRL 860-181IIJ). Cells are maintained diluting 1:10 for 4 days in T-150 flask and 35 mL of cell media. For plating, cells are rinsed with 5 mL of 1×PBS, trypsinized with 4 mL of 0.05% Tripsin for 1 minute, and 12 mL of cell media is added. These are centrifuged at 1000 rpm for 4 minutes and the media aspirated, then 8 mL of media per flask is added. Based on cell count, appropriate amounts of cell and cell media are combined, and 180 μl per well are plated (96 well) and the plates are incubated overnight at 37° C., 5% CO2. Compounds to be tested are serially diluted 1:3 in DMSO and twice in media (without G418) in V-bottom plates and incubated at room temperature. Plated cells are washed with media, 3×50 μL per well and 17 μL per well of appropriate dilution of compound is added. Plates are incubated for 2 hours, and the wash steps, compound addition and incubation are repeated. Sample is transferred to capture plate (prepared with 266 antibody, see e.g. Johnson-Wood et al., PNAS February 1997, 94: 1550-1555), along with a standard curve of Aβ-40. ELISA assay is used to assess Aβ levels, washing with TBS, 0.05% Tween20 pH 7.5, then adding 1.3 mg/mL 3D6 antibody 1:900 in specimen diluents with thimericol is added (100 μl per well) and incubated for 1 hour. Wash step is repeated and Streptavidin-AP diluted 1:1000 in specimen diluents with thimerisol is added (100 μL per well) and incubated for 1 hour. Wash step is repeated and fluorescent substrate is added, 100 μL per well and incubated for 10 minutes followed by reading the fluorescent signal on a plate reader.

[4] = dose at which Aβ level is reduced by 50%, HEKp293 SWE293 cells

Cathepsin D, sequence (P07339 65-412, species assumed): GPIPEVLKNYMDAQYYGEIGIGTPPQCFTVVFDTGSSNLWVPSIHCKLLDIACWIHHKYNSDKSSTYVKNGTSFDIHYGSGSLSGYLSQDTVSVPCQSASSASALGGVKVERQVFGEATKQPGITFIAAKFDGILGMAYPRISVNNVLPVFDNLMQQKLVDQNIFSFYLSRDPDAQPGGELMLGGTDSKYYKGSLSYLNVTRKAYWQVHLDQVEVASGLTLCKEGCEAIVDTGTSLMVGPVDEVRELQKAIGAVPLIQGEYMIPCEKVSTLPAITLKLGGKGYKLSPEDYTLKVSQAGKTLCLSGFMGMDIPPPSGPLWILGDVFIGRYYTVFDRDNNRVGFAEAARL

| pIC50 (Cathepsin D) | pIC50 (BACE1 [1]) | pIC50 (BACE1 [2]) | SMILES | pIC50 [3, 4] | pIC50 [3] |
| --- | --- | --- | --- | --- | --- |
| 5.26 | 6.20 | 6.66 | CC#Cc1cncc(-c2csc(C3(C)N=C(N)OC4(CCOCC4)C3(F)F)c2)c1 (stereo not shown) [Compound 8-114, 5,5-difluoro-4-methyl-4-(4-(5-(prop-1-ynyl)pyridin-3-yl)thiophen-2-yl)-1,9-dioxa-3-azaspiro[5.5]undec-2-en-2-amine] | 5.67 | – |
| < 4.52 | 7.54 | 8.17 | C[C@@]1(c2cc(NC(=O)c3ccc(F)cn3)ccc2F)CC2(CCOCC2)SC(N)=N1 [Compound 9-148, (S)—N-(3-(2-amino-4-methyl-9-oxa-1-thia-3-azaspiro[5.5]undec-2-en-4-yl)-4-fluorophenyl)-5-fluoropicolinamide] | 8.85 | – |
| < 4.52 | 6.97 | 8.08 | C[C@@]1(c2cc(NC(=O)c3ccc(Cl)cn3)ccc2F)CC2(CCC2)OC(N)=N1 [Compound 9-129, (S)—N-(3-(6-amino-8-methyl-5-oxa-7-azaspiro[3.5]non-6-en-8-yl)-4-fluorophenyl)-5-chloropicolinamide] | 7.43 | – |
| < 4.52 | 7.06 | 8.24 | C[C@@]1(c2cc(NC(=O)c3ncc(Cl)cc3F)ccc2F)CC2(CCC2)OC(N)=N1 [Compound 9-131, (S)—N-(3-(6-amino-8-methyl-5-oxa-7-azaspiro[3.5]non-6-en-8-yl)-4-fluorophenyl)-5-chloro-3-fluoropicolinamide] | 7.34 | – |
| < 4.52 | 6.57 | 8.06 | C[C@@]1(c2cc(NC(=O)c3ccc(F)cn3)ccc2F)CC2(CCC(F)(F)CC2)OC(N)=N1 [Compound 9-123, (S)—N-(3-(2-amino-9,9-difluoro-4-methyl-1-oxa-3-azaspiro[5.5]undec-2-en-4-yl)-4-fluorophenyl)-5-fluoropicolinamide] | 7.72 | – |
| < 4.52 | 4.90 | 6.24 | CC1(c2cc(-c3cncnc3)ccc2F)CC2(CCOCC2)OC(N)=N1 (stereo not shown) [Compound 8-106, 4-(2-fluoro-5-(pyrimidin-5-yl)phenyl)-4-methyl-1,9-dioxa-3-azaspiro[5.5]undec-2-en-2-amine] | 6.17 | – |
| 4.83 | 7.49 | 8.70 | COc1cccnc1Nc1ccc(F)c([C@]2(C)CC3(CCOCC3)SC(N)=N2)c1 [Compound 13-182, (S)-4-(2-fluoro-5-(3-methoxypyridin-2-ylamino)phenyl)-4-methyl-9-oxa-1-thia-3-azaspiro[5.5]undec-2-en-2-amine] | > 6.91 | – |
| < 4.52 | 8.72 | 8.35 | C[C@@]1(c2cc(NC(=O)c3ccc(Cl)cn3)ccc2F)CC2(CCC2)SC(N)=N1 [Compound 9-145, (S)—N-(3-(6-amino-8-methyl-5-thia-7-azaspiro[3.5]non-6-en-8-yl)-4-fluorophenyl)-5-chloropicolinamide] | 8.70 | – |
| < 4.52 | 6.92 | 8.01 | C[C@@]1(c2cc(NC(=O)c3ccc(F)cn3)ccc2F)CC2(COC2)SC(N)=N1 [Compound 9-146, (S)—N-(3-(6-amino-8-methyl-2-oxa-5-thia-7-azaspiro[3.5]non-6-en-8-yl)-4-fluorophenyl)-5-fluoropicolinamide] | 7.66 | – |
| 5.25 | 6.02 | 7.59 | CC#Cc1cncc(-c2csc([C@]3(C)CC4(CCC(F)(F)CC4)OC(N)=N3)c2)c1 [Compound 8-110, (S)-9,9-difluoro-4-methyl-4-(4-(5-(prop-1-ynyl)pyridin-3-yl)thiophen-2-yl)-1-oxa-3-azaspiro[5.5]undec-2-en-2-amine] | 6.52 | – |
| < 4.52 | 6.55 | 7.98 | COc1cnc(C(=O)Nc2ccc(F)c([C@]3(C)CC4(CCC4)OC(N)=N3)c2)cn1 [Compound 9-135, (S)—N-(3-(6-amino-8-methyl-5-oxa-7-azaspiro[3.5]non-6-en-8-yl)-4-fluorophenyl)-5-methoxypyrazine-2-carboxamide] | 7.57 | – |
| < 4.52 | 7.18 | 7.71 | CC1(c2cc(NC(=O)c3ccc(Cl)cn3)ccc2F)N=C(N)OC2(CCC2)C1(F)F (stereo not shown) [Compound 9-160, N-(3-(6-amino-9,9-difluoro-8-methyl-5-oxa-7-azaspiro[3.5]non-6-en-8-yl)-4-fluorophenyl)-5-chloropicolinamide] | 6.57 | – |
| 4.71 | 7.03 | 7.82 | CC1(c2cc(NC(=O)c3ccc(Cl)cn3)ccc2F)N=C(N)OC2(CCOCC2)C1(F)F (stereo not shown) [Compound 9-158, N-(3-(2-amino-5,5-difluoro-4-methyl-1,9-dioxa-3-azaspiro[5.5]undec-2-en-4-yl)-4-fluorophenyl)-5-chloropicolinamide] | 6.74 | – |

| SMILES | pIC50 (Cathepsin D) | pIC50 (BACE1 [1]) | pIC50 (BACE1 [2]) | pIC50 [3, 4] | pIC50 [3] |
| --- | --- | --- | --- | --- | --- |
| CC1(c2cc(NC(=O)c3ccc(Cl)cn3)ccc2F)CC2(CCOCC2)OC(N)=N1 (stereo not shown) [Compound 9-121, N-(3-(2-amino-4-methyl-1,9-dioxa-3-azaspiro[5.5]undec-2-en-4-yl)-4-fluorophenyl)-5-chloropicolinamide] | < 4.52 | 7.14 | 8.05 | – | 8.22 |
| CC#Cc1cncc(-c2csc(C3(C)CC4(CCOCC4)OC(N)=N3)c2)c1 (stereo not shown) [Compound 8-102, 4-methyl-4-(4-(5-(prop-1-ynyl)pyridin-3-yl)thiophen-2-yl)-1,9-dioxa-3-azaspiro[5.5]undec-2-en-2-amine] | 5.35 | 5.64 | 7.16 | – | 6.44 |
| CC1(c2cc(NC(=O)c3ccc(F)cn3)ccc2F)N=C(N)OC2(CCC2)C1(F)F (stereo not shown) [Compound 9-159, N-(3-(6-amino-9,9-difluoro-8-methyl-5-oxa-7-azaspiro[3.5]non-6-en-8-yl)-4-fluorophenyl)-5-fluoropicolinamide] | < 4.52 | 6.68 | 7.40 | – | 6.65 |
| C[C@]1(c2cc(NC(=O)c3ccc(C#N)cn3)ccc2F)N=C(N)OC2(CCC2)C1(F)F [Compound 9-162, (R)—N-(3-(6-amino-9,9-difluoro-8-methyl-5-oxa-7-azaspiro[3.5]non-6-en-8-yl)-4-fluorophenyl)-5-cyanopicolinamide] | < 4.52 | 7.40 | 7.82 | 7.41 | – |
| CC1(c2cc(NC(=O)c3ccc(F)cn3)ccc2F)N=C(N)OC2(CCOCC2)C1(F)F (stereo not shown) [Compound 9-155, N-(3-(2-amino-5,5-difluoro-4-methyl-1,9-dioxa-3-azaspiro[5.5]undec-2-en-4-yl)-4-fluorophenyl)-5-fluoropicolinamide] | < 4.52 | 6.56 | 7.51 | 6.75 | – |
| C[C@]1(c2cc(NC(=O)c3ccc(F)cn3)ccc2F)N=C(N)OC2(CCOCC2)C1(F)F [Compound 9-157, (R)—N-(3-(2-amino-5,5-difluoro-4-methyl-1,9-dioxa-3-azaspiro[5.5]undec-2-en-4-yl)-4-fluorophenyl)-5-fluoropicolinamide] | < 4.52 | 6.52 | 7.35 | 6.78 | – |

Reference: patent US9493485B2, “Spirocyclic dihydro-thiazine and dihydro-oxazine BACE inhibitors, and compositions and uses thereof” (Imago Pharmaceuticals, Inc., priority 2012, dated 2016)
